Results from US20040185558A1, “Method for culturing brain tissue in three dimensions” (priority 2003, published 2004).

Tested on: hippocampal tissue grown under SMC
Assay: field EPSP evoked by electrical stimulation in hippocampal tissue cultured 10 days under simulated microgravity conditions
Format: cell-based, Sprauge-Dawley rats
Excerpt: In order to determine whether hippocampal tissue grown under SMC is able to generate electrical signals, hippocampal tissue grown under SMC for 10 days as described was electrically stimulated and field excitatory postsynaptic potential (EPSP) recorded. […] One important characteristic of the response is the presence of paired-pulse facilitation (PPF) (FIGS. 3A and 3B). PDF have been described and characterized in acute slices from the hippocampus and are an example of frequency-dependent short-term plasticity of excitatory synapses. This phenomenon is accounted for by the residual calcium hypothesis, according to which the small fraction of calcium entering the terminal during the first spike increases the probability of transmitter release to a second action potential (Zucker, 1989). […]
Sprauge-Dawley rats (7-9 days old) are quickly decapitated and the brain is rapidly removed and placed in ice-cold Gey's solution (g/L): NaCl (7), KCl (0.37), MgSO4-7H2O (0.06), MgCl2-6H2O (0.21), KH2PO4 (0.03), Na2HPO4-7H2O (0.23), Glucose (1), CaCl2-2H2O (0.23) and NaHCO3 ([…]). […] The slices will be monitored daily and rotary speed will be adjusted in order to avoid any free falling. […]

Row | Compound | effect on field EPSP (dependence on voltage gated calcium current) (perfused with 1 mM CoCl2, hippocampal tissue grown under SMC 10 days, reversible after washout) | effect on field EPSP (NMDA subtype glutamate receptor antagonist) (100 μM APV, hippocampal tissue grown under SMC, vs no antagonist)
1 | [Cl][Co][Cl] [CoCl2, cobalt chloride] | reversibly blocked | –
2 | NC(CCCP(=O)(O)O)C(=O)O (centres unmarked) [APV, amino-5-phosphonovaleric acid] | – | partially block
